Measurements: ChEMBL document CHEMBL1154658, “Novel macrocyclic inhibitors of hepatitis C NS3/4A protease featuring a 2-amino-1,3-thiazole as a P4 carbamate replacement” (J Med Chem, 2009)
pEC50, pKi: −log10 of the molar value.

Columns and labels:
[1] = tested on: Hepatitis C virus; test: Inhibition of HCV 1b NS3/4A protease by time-resolved fluorescence assay; design: species or system Hepatitis C virus subtype 1b
[2] = tested on: Hepatitis C virus; test: Antiviral activity against HCV 1b infected in human Huh7 cells by bicistronic replicon RNA assay in presence of 50% normal human serum; type: functional, organism-based, Hepacivirus hominis; details: genotype 1b, Huh-7
[3] = (§1) AUC (0 to 4 hrs) in Sprague-Dawley rat at 5 mg/kg, po; type: ADME, organism-based, Plasma; design: time < 4 hr, dose 5 mg/kg, route oral; details: Sprague-Dawley, plasma
[4] = Drug level in Sprague-Dawley rat liver at 5 mg/kg, po after 4 hrs; type: ADME, organism-based; design: dose 5 mg/kg, route oral; details: read-out: Drug uptake
[5] = tested on: Hepatitis C virus; test: Antiviral activity against HCV 1b infected in human Huh7 cells by bicistronic replicon RNA assay in presence of 10% fetal bovine serum; type: functional, organism-based, Hepacivirus hominis; details: genotype 1b, Huh-7
[6] = tested on: Rattus norvegicus; test: Plasma clearance in Sprague-Dawley rat at 5 mg/kg, po; type: ADME, organism-based; design: dose 5 mg/kg, route oral; details: in vivo
[7] = tested on: Rattus norvegicus; test: as §1; type: ADME, organism-based, Plasma; design: time < 4 hr, dose 5 mg/kg, route oral; details: in vivo, 4 h
[8] = Oral bioavailability in Sprague-Dawley rat at 5 mg/kg; type: ADME, organism-based; details: in vivo
[9] = Selectivity for HCV NS3/4A protease over chymotrypsin
[10] = Selectivity for HCV NS3/4A protease over trypsin
[11] = Drug level in Sprague-Dawley rat liver at 5 mg/kg, po after 24 hrs; type: ADME, organism-based; design: dose 5 mg/kg, route oral; details: read-out: Drug uptake
[12] = Bioavailability in Beagle dog at 2 mg/kg, iv; type: ADME, organism-based, Canis lupus familiaris; details: in vivo
[13] = Drug level in Sprague-Dawley rat liver at 20 mg/kg, po after 24 hrs; type: ADME, organism-based; design: dose 20 mg/kg, route oral; details: read-out: Drug uptake
[14] = Cmax in Sprague-Dawley rat at 20 mg/kg, po; type: ADME, organism-based; design: dose 20 mg/kg, route oral; details: in vivo
[15] = AUC in Beagle dog at 10 mg/kg, po; type: ADME, organism-based, Canis lupus familiaris; design: dose 10 mg/kg, route oral; details: plasma
[16] = Drug level in Sprague-Dawley rat liver at 30 mg/kg, po after 24 hrs; type: ADME, organism-based; design: dose 30 mg/kg, route oral; details: read-out: Drug uptake
[17] = AUC in Beagle dog at 5 mg/kg, po; type: ADME, organism-based, Canis lupus familiaris; design: dose 5 mg/kg, route oral; details: plasma
[18] = AUC in Sprague-Dawley rat at 10 mg/kg, po; type: ADME, organism-based; design: dose 10 mg/kg, route oral; details: plasma
[19] = Cmax in Sprague-Dawley rat at 5 mg/kg, po; type: ADME, organism-based; design: dose 5 mg/kg, route oral; details: in vivo
[20] = Plasma clearance in Beagle dog at 2 mg/kg, iv; type: ADME, organism-based, Canis lupus familiaris; design: dose 2 mg/kg, route intravenous
[21] = AUC in Beagle dog at 2 mg/kg, iv; type: ADME, organism-based, Canis lupus familiaris; design: dose 2 mg/kg, route intravenous; details: plasma
[22] = AUC in Sprague-Dawley rat at 20 mg/kg, po; type: ADME, organism-based; design: dose 20 mg/kg, route oral; details: plasma
[23] = Cmax in Beagle dog at 2 mg/kg, iv; type: ADME, organism-based, Canis lupus familiaris; design: dose 2 mg/kg, route intravenous; details: in vivo
[24] = AUC in Sprague-Dawley rat at 5 mg/kg, po; type: ADME, organism-based; design: dose 5 mg/kg, route oral; details: plasma
[25] = Cmax in Beagle dog at 10 mg/kg, po; type: ADME, organism-based, Canis lupus familiaris; design: dose 10 mg/kg, route oral; details: in vivo
[26] = AUC in Sprague-Dawley rat at 30 mg/kg, po; type: ADME, organism-based; design: dose 30 mg/kg, route oral; details: plasma
[27] = Cmax in Sprague-Dawley rat at 30 mg/kg, po; type: ADME, organism-based; design: dose 30 mg/kg, route oral; details: in vivo
[28] = Cmax in Beagle dog at 5 mg/kg, po; type: ADME, organism-based, Canis lupus familiaris; design: dose 5 mg/kg, route oral; details: in vivo
[29] = Cmax in Sprague-Dawley rat at 10 mg/kg, po; type: ADME, organism-based; design: dose 10 mg/kg, route oral; details: in vivo
[30] = AUC (0 to 4 hrs) in Sprague-Dawley rat at 4 mg/kg, po; type: ADME, organism-based, Plasma; design: time < 4 hr, dose 4 mg/kg, route oral; details: Sprague-Dawley, plasma
[31] = Plasma clearance in Sprague-Dawley rat at 4 mg/kg, po; type: ADME, organism-based; design: dose 4 mg/kg, route oral; details: Sprague-Dawley, plasma
[32] = Oral bioavailability in Sprague-Dawley rat at 4 mg/kg; type: ADME, organism-based; details: in vivo
[33] = Drug level in Sprague-Dawley rat liver at 4 mg/kg, po after 4 hrs; type: ADME, organism-based; design: dose 4 mg/kg, route oral; details: read-out: Drug uptake

Row | Compound | pKi [1] | pEC50 [2] | AUC(0-t) at 4 h [3] | concentration at 4 h [4] | pEC50 [5] | bioavailability [8] | also measured
1 | C=C[C@@H]1C[C@]1(NC(=O)[C@@H]1C[C@@H]2CN1C(=O)[C@H](C(C)(C)C)Nc1nc(cs1)CCCCc1ccc3ccnc(c3c1)O2)C(=O)NS(=O)(=O)C1CC1.O=C(O)C(F)(F)F | 9.70 | 6.89 | 0.1 µM·h | 1000 nM | 7.70 |  | 
2 | C=C[C@@H]1C[C@]1(NC(=O)[C@@H]1C[C@@H]2CN1C(=O)[C@H](C(C)C)Nc1nc(cs1)C(C)(C)CCCc1ccc3ccnc(c3c1)O2)C(=O)NS(=O)(=O)C1CC1.O=C(O)C(F)(F)F | 8.52 | 7.00 | 0.8 µM·h | 3600 nM | 7.70 |  | 
3 | C=C[C@@H]1C[C@]1(NC(=O)[C@@H]1C[C@@H]2CN1C(=O)[C@H](C(C)(C)C)Nc1nc(cs1)CCCCCc1cccc3c1CN(C3)C(=O)O2)C(=O)NS(=O)(=O)C1CC1.O=C(O)C(F)(F)F | 9.80 | 7.72 |  | 60 nM | 8.40 | 5% | CL [6]: 95 mL/min/kg; AUC [7]: 0.06 µM·h
4 | C=C[C@@H]1C[C@]1(NC(=O)[C@@H]1C[C@@H]2CN1C(=O)[C@H](C(C)C)NC1=NN=C(CCCCc3ccc4ccnc(c4c3)O2)O1)C(=O)NS(=O)(=O)C1CC1 | 9.05 | 6.74 | 0.1 µM·h | 30 nM | 7.10 |  | 
5 | C=C[C@@H]1C[C@]1(NC(=O)[C@@H]1C[C@@H]2CN1C(=O)[C@H]([C@@H](C)CC)Nc1nc(cs1)CCC/C=C/c1cccc3c1CN(C3)C(=O)O2)C(=O)NS(=O)(=O)C1CC1 |  |  |  |  |  |  | fold change (FC) [9]: > 15000; fold change (FC) [10]: > 15000
6 | C=C[C@@H]1C[C@]1(NC(=O)[C@@H]1C[C@@H]2CN1C(=O)[C@H](C(C)C)Nc1nc(cs1)CCC/C=C/c1cccc3c1CN(C3)C(=O)O2)C(=O)NS(=O)(=O)C1CC1.O=C(O)C(F)(F)F | 9.80 | 7.30 |  | 600 nM | 8.30 | 8% | CL [6]: 21 mL/min/kg; AUC [7]: 0.4 µM·h
7 | C=C[C@@H]1C[C@]1(NC(=O)[C@@H]1C[C@@H]2CN1C(=O)[C@H](C(C)C)Nc1nc(cs1)CCCCc1ccc3nc(-c4ccccc4)cc(c3c1)O2)C(=O)NS(=O)(=O)C1CC1.O=C(O)C(F)(F)F | 9.30 | 6.41 | < 0.01 µM·h | < 10 nM | 7.40 |  | 
8 | C=C[C@@H]1C[C@]1(NC(=O)[C@@H]1C[C@@H]2CN1C(=O)[C@H]([C@@H](C)CC)Nc1nc(cs1)CCC/C=C/c1cccc3c1CN(C3)C(=O)O2)C(=O)[N-]S(=O)(=O)C1CC1.[K+] |  |  |  |  |  | 26% | concentration at 24 h [11]: 10 nM; bioavailability [12]: 17%; concentration at 24 h [13]: 40 nM; Cmax [14]: 5900 nM; AUC [15]: 10 µM·h; concentration at 24 h [16]: 60 nM; AUC [17]: 0.5 µM·h; AUC [18]: 2.5 µM·h; Cmax [19]: 500 nM; clearance [20]: 38 mL/min/kg; AUC [21]: 0.2 µM·h; AUC [22]: 13.3 µM·h; Cmax [23]: 60 nM; AUC [24]: 1.7 µM·h; Cmax [25]: 4000 nM; AUC [26]: 21 µM·h; Cmax [27]: 8000 nM; Cmax [28]: 1160 nM; Cmax [29]: 1400 nM
9 | CCC1C[C@]1(NC(=O)[C@@H]1C[C@@H]2CN1C(=O)[C@H](C1CCCCC1)Nc1nc(cs1)CCC/C=C/c1cccc3c1CN(C3)C(=O)O2)C(=O)NS(=O)(=O)C1CC1.O=C(O)C(F)(F)F (single isomer, unassigned) | 9.80 | 7.30 |  |  | 7.92 |  | AUC(0-t) at 4 h [30]: < 0.01 µM·h; CL/F [31]: 56 mL/min/kg; bioavailability [32]: < 0.01%; concentration at 4 h [33]: 570 nM
